In the assay the target is T1, hNpr1 (Homo sapiens, UniProt P16066).
T1 sequence (P16066 33-1061): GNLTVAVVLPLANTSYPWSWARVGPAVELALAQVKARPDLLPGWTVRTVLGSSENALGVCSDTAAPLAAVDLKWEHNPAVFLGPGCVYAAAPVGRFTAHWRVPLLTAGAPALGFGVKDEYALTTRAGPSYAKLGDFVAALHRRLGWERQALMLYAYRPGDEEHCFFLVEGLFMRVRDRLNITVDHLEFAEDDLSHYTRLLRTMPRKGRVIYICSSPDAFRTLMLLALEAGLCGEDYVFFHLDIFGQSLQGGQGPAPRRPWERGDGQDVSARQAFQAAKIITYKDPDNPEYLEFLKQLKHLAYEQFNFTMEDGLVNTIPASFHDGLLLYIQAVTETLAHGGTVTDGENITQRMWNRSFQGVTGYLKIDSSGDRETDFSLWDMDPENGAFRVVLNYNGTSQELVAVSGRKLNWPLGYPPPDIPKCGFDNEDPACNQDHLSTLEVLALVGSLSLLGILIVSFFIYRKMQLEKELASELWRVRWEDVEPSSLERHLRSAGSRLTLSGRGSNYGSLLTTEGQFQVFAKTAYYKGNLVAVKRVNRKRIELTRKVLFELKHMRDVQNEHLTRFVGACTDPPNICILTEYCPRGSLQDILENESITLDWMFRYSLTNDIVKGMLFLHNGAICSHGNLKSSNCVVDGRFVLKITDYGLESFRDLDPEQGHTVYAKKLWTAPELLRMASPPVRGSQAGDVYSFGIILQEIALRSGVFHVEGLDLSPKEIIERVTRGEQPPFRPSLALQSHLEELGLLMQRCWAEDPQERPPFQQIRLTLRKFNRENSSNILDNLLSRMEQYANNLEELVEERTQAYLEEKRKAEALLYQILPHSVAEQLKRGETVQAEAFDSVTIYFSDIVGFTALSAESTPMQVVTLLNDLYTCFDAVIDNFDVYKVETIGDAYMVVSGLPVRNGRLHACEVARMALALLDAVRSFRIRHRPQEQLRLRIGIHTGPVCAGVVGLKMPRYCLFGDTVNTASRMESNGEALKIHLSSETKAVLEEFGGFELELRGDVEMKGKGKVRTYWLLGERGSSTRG
The assay can be described thus: GloSensor assay in 96-well format, HEK-hNpr1-cGMP-sensor cells. The class given is cell-based. Further details: Reversibility of hNpr1 inhibition after washing: dose or concentration left out as unconfirmed. The note with it: for Imax [%] (mean ± SEM), GloSensor 96-well format / IC50: 60 pM hNppa 5 minutes after compound; for IC50: read-out: IC50 [μM] (mean ± SEM), GloSensor 96-well format; for Ki: calculated with Cheng-Prusoff equation from Table 3, read-out: Ki hNpr1 GloSensor™ [μM] (mean ± SEM); for Effect on hNppa concentration-response at fixed antagonist concentration: 5 μM antagonist, increasing hNppa, GloSensor and membrane cyclase assays (FIGS. 5B-C); for Basal (unstimulated) hNpr1 activity: HEK-hNpr1-cGMP-sensor cells, no agonist. How it is done: Before the measurement (24 hours in advance), 3×10^4 cells were seeded into white 96-well plates (PerkinElmer, Waltham, Mass.), coated with 0.1% poly(D-lysine), and assays conducted as recommended by the manufacturer (Promega). Medium was aspirated and cells were loaded for two hours at room temperature with 2% GoSensor™ reagent diluted in CO2-independent media (ThermoFisher) supplemented with 2 mM L-glutamine and 10% FBS (assay medium). Luminescence was measured on a BioTek Synergy™ NEO (Winooski, Vt.) plate reader at room temperature. After a baseline measurement of 3-5 minutes, assay medium as a control or assay medium with agonist was manually added, and luminescence was measured for 30 minutes at ˜ 1/60 Hz. For compounds tested for Npr1 and Npr2 inhibition, the compounds were added after baseline measurements, and luminescence was read for 5 minutes before addition of agonist. Luminescence was then normalized to baseline measurements and plotted against the time. Ligand-induced changes of cGMP production were quantified by determining the area under the curve. To determine efficacy and potency of agonists, ligand-induced changes were normalized to medium only addition and plotted against the ligand concentration. […] To quantify […] of compounds, compound-induced changes of agonist-induced cGMP production were normalized to vehicle controls, plotted against compound concentration, and fit with a four-parameter logistic regression. Effects of A-71915 on basal mNpr1 activity were fitted with a bell-shaped regression (equation indicated below).
Additional screens of the fifteen candidates corroborated hNpr1 inhibition. In particular, HEK-hNpr1-cGMP-sensor cells were seeded in 96-wells and stimulated with 60 pM hNppa 5 minutes after addition of candidate compounds or A-71915 and luminescence was measured for 30 minutes. Inhibitors were titrated to calculate apparent potency (IC50) and efficacy (Imax) of inhibition of hNppa-induced cGMP production.

“Also recorded” adds a separate entry of the source.

Turning to `CCC(CC)c1cc([C@H]2CN3CC[C@H]2C[C@@H]3CNS(=O)(=O)c2cccs2)nc(-c2ccncc2)n1` [JS-3, N-(((2R,4S,5R)-5-(6-(pentan-3-yl)-2-(pyridin-4-yl)pyrimidin-4-yl)quinuclidin-2-yl)methyl)thiophene-2-sulfonamide], the “Imax [%] (mean ± SEM), GloSensor 96-well format” value (shortened to “Imax [%] (mean ± SEM)”) is recorded as −99.4 ± 0.6%; the IC50 worked out at 3.1 ± 0.6 µM; the Ki was 0.5 ± 0.102 µM.
For `COc1cc(CN2CCC(C)(NC(C)=O)CC2)cc(-c2ccncc2)c1` [JS-4, N-(1-(3-methoxy-5-(pyridin-4-yl)benzyl)-4-methylpiperidin-4-yl)acetamide], in that order: −95.5 ± 1.2%, 1.1 ± 0.01 µM and 0.18 ± 0.002 µM.
In the case of `Cc1noc(C)c1-c1cc(-c2ccccc2Oc2ccccc2)cn2cncc12` [JS-5, 3,5-dimethyl-4-(6-(2-phenoxyphenyl)imidazo[1,5-a]pyridin-8-yl)isoxazole], the “Imax [%] (mean ± SEM)” value is on record as −99.9 ± 0.1%; the IC50 came to 7.4 ± 0.3 µM; the “Effect on hNppa concentration-response at fixed antagonist concentration” value is “reduced maximal responses even at extremely high hNppa concentrations”; the “Basal (unstimulated) hNpr1 activity” value is given as “dose dependently inhibited”. Further, the Ki was 1.18 ± 0.048 µM.
On to `COc1ccccc1-c1n[nH]c2ncc(C(=O)NCc3cccnc3)nc12` [JS-6, 3-(2-methoxyphenyl)-N-(pyridin-3-ylmethyl)-1H-pyrazolo[3,4-b]pyrazine-5-carboxamide], for which the “Imax [%] (mean ± SEM)” value is recorded as −94.2 ± 5.3%; the IC50 was found to be 1.9 ± 0.1 µM; the Ki is 0.31 ± 0.023 µM.
On to `O=C(NCc1cccnc1)c1cnc2[nH]nc(-c3ccccc3)c2n1` [JS-7, 3-phenyl-N-(pyridin-3-ylmethyl)-1H-pyrazolo[3,4-b]pyrazine-5-carboxamide], for which the IC50 stood at 1.2 ± 0.5 µM and the Ki is 0.19 ± 0.085 µM.
On to `Cc1nn2c(c1-c1ccccc1OCc1ccccc1)N(C(=O)Cc1ccc3c(c1)OCO3)CCC2` [JS-8, 2-(benzo[d][1,3]dioxol-5-yl)-1-(3-(2-(benzyloxy)phenyl)-2-methyl-6,7-dihydropyrazolo[1,5-a]pyrimidin-4(5H)-yl)ethan-1-one], for which the “Imax [%] (mean ± SEM)” value is −98.8 ± 0.7%; the IC50 was 1.2 ± 0.1 µM; the “Effect on hNppa concentration-response at fixed antagonist concentration” value is “reduced maximal responses even at extremely high hNppa concentrations”; the “Basal (unstimulated) hNpr1 activity” value is recorded as “dose dependently inhibited”. Further, the Ki was 0.2 ± 0.013 µM. Moreover, under “5 minutes compound, 5-minute washing step, then hNppa”, the “Reversibility of hNpr1 inhibition after washing” value is on record as “a single washing step was sufficient to completely recover hNpr1 activity; also recorded: reversible”.
Regarding `Cc1nn2c(c1-c1ccccc1OCc1ccccc1)N(C(=O)Cc1ccccn1)CCC2` [JS-9, 1-(3-(2-(benzyloxy)phenyl)-2-methyl-6,7-dihydropyrazolo[1,5-a]pyrimidin-4(5H)-yl)-2-(pyridin-2-yl)ethan-1-one], the “Imax [%] (mean ± SEM)” value is listed as −93.4 ± 6.4%; the IC50 was 3.1 ± 1.4 µM; the Ki is 0.49 ± 0.215 µM.
Turning to `Cc1nn2c(c1-c1ccccc1Oc1ccccc1)N(C(=O)Cc1ccc3c(c1)OCO3)CCC2` [JS-10, 2-(benzo[d][1,3]dioxol-5-yl)-1-(2-methyl-3-(2-phenoxyphenyl)-6,7-dihydropyrazolo[1,5-a]pyrimidin-4(5H)-yl)ethan-1-one], the “Imax [%] (mean ± SEM)” value is −98.3 ± 1.7%; the IC50 is 6.7 ± 6.7 µM; the Ki was 1.07 ± 1.08 µM.
`Cc1cc(CNC(=O)c2ccc3c(c2)n(CC2CC2)c(=O)n3C2CCCCC2)on1` [JS-11, 1-cyclohexyl-3-(cyclopropylmethyl)-N-((3-methylisoxazol-5-yl)methyl)-2-oxo-2,3-dihydro-1H-benzo[d]imidazole-5-carboxamide]: the “Imax [%] (mean ± SEM)” value is listed as −96.3 ± 1.3%; the IC50 stood at 1.9 ± 0.8 µM; the “Basal (unstimulated) hNpr1 activity” value is listed as “dose dependently inhibited”; the Ki was 0.3 ± 0.134 µM.
For the molecule `COc1ccc(C2(C(=O)N3CCC4(CC3)c3nccn3-c3ccccc3CN4C)CC2)cc1` [JS-12, (1-(4-methoxyphenyl)cyclopropyl)(5-methyl-5,6-dihydrospiro[benzo[f]imidazo[1,2-a][1,4]diazepine-4,4′-piperidin]-1′-yl)methanone], the “Imax [%] (mean ± SEM)” value was −96.0 ± 1.3%; the IC50 amounted to 1.3 ± 0.002 µM; the Ki is 0.21 ± 0.0002 µM.
`N#Cc1ccccc1CN1CCCC(C(=O)NCc2ccccc2)CCNC(=O)CC1` (stereo not shown) [JS-13, N-benzyl-1-(2-cyanobenzyl)-4-oxo-1,5-diazacycloundecane-8-carboxamide]: the “Imax [%] (mean ± SEM)” value was −96.1 ± 0.4%; the IC50 amounted to 1.1 ± 0.1 µM; the Ki was 0.18 ± 0.011 µM.
For the molecule `CN(Cc1ccccc1)C(=O)c1cn2ccnc(-c3ccccc3)c2n1` [JS-14, N-benzyl-N-methyl-8-phenylimidazo[1,2-a]pyrazine-2-carboxamide], the 50% inhibitory concentration (IC50) turned out to be 3.1 ± 1.1 µM and the Ki is 0.5 ± 0.179 µM.

The IC50 is the concentration that inhibits the measured activity by half. Usually Ki stands for a measure of affinity in units of concentration, obtained from inhibition or displacement.

The values are drawn from patent US11324725B2, “Compositions and methods for the inhibition of pruritus” (The United States of America, as represented by the …, priority 2017, dated 2022).
